# Data reported in PubChem BioAssay AID248 (DTP/NCI, 2004).
# Toxic doses and inconclusive results are not listed.
# Test system: L1210 leukemia ip in BDF1 mice, survival T/C
# Assay: NCI In Vivo Anticancer Drug Screen. Data for tumor model L1210 Leukemia (intraperitoneal) in B6D2F1 (BDF1) mice
# Settings: endpoint: mean survival time, higher = longer survival
# Outline: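 Transplanted-tumor mice were given test agent; controls received vehicle only. Survival readings from the two groups were divided (treated over control).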
# [1] = dose: 100.0 mg/kg/injection, schedule: Q01DX001 (ip), vehicle: carboxymethylcellulose (CMC)
# [2] = dose: 200.0 mg/kg/injection, schedule: Q01DX001 (ip), vehicle: carboxymethylcellulose (CMC)
# [3] = dose: 400.0 mg/kg/injection, schedule: Q01DX001 (ip), vehicle: carboxymethylcellulose (CMC)
# [4] = dose: 100.0 mg/kg/injection, schedule: Q01DX001 (ip), vehicle: Klucel (hydroxypropylcellulose) (HPC)
# [5] = dose: 100.0 mg/kg/injection, schedule: Q01DX009 (ip), vehicle: saline
# [6] = dose: 100.0 mg/kg/injection, schedule: Q04DX003 (ip), vehicle: saline
# [7] = dose: 200.0 mg/kg/injection, schedule: Q01DX001 (ip), vehicle: Klucel (hydroxypropylcellulose) (HPC)
# [8] = dose: 200.0 mg/kg/injection, schedule: Q01DX009 (ip), vehicle: saline
# [9] = dose: 200.0 mg/kg/injection, schedule: Q04DX003 (ip), vehicle: saline
# [10] = dose: 400.0 mg/kg/injection, schedule: Q01DX001 (ip), vehicle: Klucel (hydroxypropylcellulose) (HPC)
# [11] = dose: 400.0 mg/kg/injection, schedule: Q04DX003 (ip), vehicle: saline
# [12] = dose: 100.0 mg/kg/injection, schedule: Q01DX009 (ip), vehicle: other
# [13] = dose: 200.0 mg/kg/injection, schedule: Q01DX009 (ip), vehicle: other
# [14] = dose: 50.0 mg/kg/injection, schedule: Q01DX009 (ip), vehicle: Klucel (hydroxypropylcellulose) (HPC)
# [15] = dose: 100.0 mg/kg/injection, schedule: Q01DX009 (ip), vehicle: Klucel (hydroxypropylcellulose) (HPC)
# [16] = dose: 200.0 mg/kg/injection, schedule: Q01DX009 (ip), vehicle: Klucel (hydroxypropylcellulose) (HPC)
# [17] = dose: 100.0 mg/kg/injection, schedule: Q04DX003 (ip), vehicle: Klucel (hydroxypropylcellulose) (HPC)
# [18] = dose: 200.0 mg/kg/injection, schedule: Q04DX003 (ip), vehicle: Klucel (hydroxypropylcellulose) (HPC)
# [19] = dose: 400.0 mg/kg/injection, schedule: Q04DX003 (ip), vehicle: Klucel (hydroxypropylcellulose) (HPC)
# [20] = dose: 100.0 mg/kg/injection, schedule: Q01DX009 (ip), vehicle: saline with Tween-80
# [21] = dose: 200.0 mg/kg/injection, schedule: Q01DX009 (ip), vehicle: saline with Tween-80
# [22] = dose: 400.0 mg/kg/injection, schedule: Q01DX009 (ip), vehicle: saline with Tween-80
# [23] = dose: 400.0 mg/kg/injection, schedule: Q01DX009 (ip), vehicle: Klucel (hydroxypropylcellulose) (HPC)
structure (smiles),measurement,setting,value
O=S(=O)(CS(=O)(=O)Oc1ccccc1)Oc1ccccc1,T/C,[1],93 % of control
same,T/C,[2],102 % of control
same,T/C,[3],93 % of control
Cc1cc(NS(=O)(=O)c2ccc(N=Nc3c(N)n(C)c(=O)n(C)c3=O)cc2)nc(C)n1,T/C,[1],89 % of control
same,T/C,[2],104 % of control
same,T/C,[3],101 % of control
CC(=O)CC(C)(C)c1ccccc1,T/C,[4],100 % of control
same,T/C,[5],103 % of control
same,T/C,[6],103 % of control
same,T/C,[7],95 % of control
same,T/C,[8],101 % of control
same,T/C,[9],100 % of control
same,T/C,[10],94 % of control
same,T/C,[11],111 % of control
CC(=O)OCC(OC(C)=O)C(OC(C)=O)C(OC(C)=O)C(/C=N/NC(N)=S)=N/NC(N)=S (stereo unspecified),T/C,[12],95 % of control
same,T/C,"dose: 100.0 mg/kg/injection, schedule: Q04DX003 (ip), vehicle: other",98 % of control
same,T/C,[13],91 % of control
same,T/C,"dose: 200.0 mg/kg/injection, schedule: Q04DX003 (ip), vehicle: other",103 % of control
same,T/C,"dose: 400.0 mg/kg/injection, schedule: Q04DX003 (ip), vehicle: other",103 % of control
COC(=O)c1[nH]cnc1/N=N\N(CCF)CCF,T/C,"dose: 1.5 mg/kg/injection, schedule: Q01DX009 (ip), vehicle: carboxymethylcellulose (CMC)",120 % of control
same,T/C,"dose: 3.0 mg/kg/injection, schedule: Q01DX009 (ip), vehicle: carboxymethylcellulose (CMC)",110 % of control
same,T/C,"dose: 4.5 mg/kg/injection, schedule: Q01DX001 (ip), vehicle: carboxymethylcellulose (CMC)",102 % of control
same,T/C,"dose: 5.0 mg/kg/injection, schedule: Q01DX001 (ip), vehicle: carboxymethylcellulose (CMC)",101 % of control
same,T/C,"dose: 9.0 mg/kg/injection, schedule: Q01DX001 (ip), vehicle: carboxymethylcellulose (CMC)",112 % of control
same,T/C,"dose: 10.0 mg/kg/injection, schedule: Q01DX001 (ip), vehicle: carboxymethylcellulose (CMC)",115 % of control
same,T/C,"dose: 12.0 mg/kg/injection, schedule: Q01DX009 (ip), vehicle: carboxymethylcellulose (CMC)",91 % of control
same,T/C,"dose: 14.4 mg/kg/injection, schedule: Q01DX009 (ip), vehicle: carboxymethylcellulose (CMC)",169 % of control
same,T/C,"dose: 18.0 mg/kg/injection, schedule: Q01DX009 (ip), vehicle: carboxymethylcellulose (CMC)",95 % of control
same,T/C,"dose: 40.0 mg/kg/injection, schedule: Q01DX009 (ip), vehicle: carboxymethylcellulose (CMC)",97 % of control
same,T/C,"dose: 53.0 mg/kg/injection, schedule: Q01DX001 (ip), vehicle: carboxymethylcellulose (CMC)",154 % of control
same,T/C,"dose: 80.0 mg/kg/injection, schedule: Q01DX001 (ip), vehicle: carboxymethylcellulose (CMC)",171 % of control
CCS(=O)(=O)c1ccc(C(=O)N=[N+]=[N-])cc1,T/C,[1],92 % of control
same,T/C,[2],97 % of control
same,T/C,[3],105 % of control
CCCCCCCCCC(O)CCCC(O)C(O)CCCCCCC(=O)O (stereo unspecified),T/C,"dose: 100.0 mg/kg/injection, schedule: Q04DX002 (ip), vehicle: Klucel (hydroxypropylcellulose) (HPC)",91 % of control
same,T/C,"dose: 200.0 mg/kg/injection, schedule: Q04DX002 (ip), vehicle: Klucel (hydroxypropylcellulose) (HPC)",91 % of control
same,T/C,"dose: 400.0 mg/kg/injection, schedule: Q04DX002 (ip), vehicle: Klucel (hydroxypropylcellulose) (HPC)",91 % of control
CNC(=O)c1nc(C)c(C)nc1OCc1ccccc1,T/C,[5],106 % of control
same,T/C,[6],96 % of control
same,T/C,[8],92 % of control
same,T/C,[9],94 % of control
same,T/C,"dose: 400.0 mg/kg/injection, schedule: Q01DX009 (ip), vehicle: saline",87 % of control
same,T/C,[11],96 % of control
CC(C)C(C(N)=O)N1C(=O)C2C3CCC(C3)C2C1=O (stereo unspecified),T/C,[6],98 % of control
same,T/C,[9],95 % of control
same,T/C,[11],107 % of control
O=P(OCCCl)(OCCCl)OCCCl,T/C,[6],102 % of control
same,T/C,[9],102 % of control
same,T/C,[11],103 % of control
CCCCCCCCCCCCSC(=O)NCCC,T/C,[12],95 % of control
same,T/C,[13],90 % of control
same,T/C,"dose: 400.0 mg/kg/injection, schedule: Q01DX009 (ip), vehicle: other",92 % of control
CC1C(N)CC2CC1C2(C)C (stereo unspecified),T/C,"dose: 12.5 mg/kg/injection, schedule: Q04DX002 (ip), vehicle: saline",113 % of control
same,T/C,"dose: 25.0 mg/kg/injection, schedule: Q04DX002 (ip), vehicle: saline",102 % of control
same,T/C,"dose: 50.0 mg/kg/injection, schedule: Q04DX002 (ip), vehicle: saline",102 % of control
COc1cc(N=O)ccc1O,T/C,[14],106 % of control
same,T/C,[15],103 % of control
same,T/C,[16],100 % of control
CN1C(=S)SC(c2ccccc2)N(C)C1c1ccccc1 (stereo unspecified),T/C,[14],101 % of control
same,T/C,[15],98 % of control
same,T/C,[17],89 % of control
same,T/C,[16],106 % of control
same,T/C,[18],89 % of control
same,T/C,[19],86 % of control
Nc1ncccc1O,T/C,"dose: 10.0 mg/kg/injection, schedule: Q01DX001 (ip), vehicle: saline",105 % of control
same,T/C,"dose: 20.0 mg/kg/injection, schedule: Q01DX001 (ip), vehicle: saline",95 % of control
same,T/C,"dose: 40.0 mg/kg/injection, schedule: Q01DX001 (ip), vehicle: saline",94 % of control
COc1ccc([N+](=O)[O-])c(O)c1C,T/C,[20],90 % of control
same,T/C,[21],96 % of control
same,T/C,[22],106 % of control
CC1C(=O)CC2C3(C)CCC2(C(C)C(=O)O)C(=O)C13 (stereo unspecified),T/C,[4],100 % of control
same,T/C,[15],104 % of control
same,T/C,[17],109 % of control
same,T/C,[7],107 % of control
same,T/C,[16],100 % of control
same,T/C,[18],106 % of control
same,T/C,[10],107 % of control
same,T/C,[23],98 % of control
same,T/C,[19],104 % of control
N#Cc1nc2c(n(O)c1=N)CCC/C2=C\c1ccccc1,T/C,[14],103 % of control
same,T/C,[15],103 % of control
same,T/C,[16],93 % of control
CCC[CH2][Sn]([Cl])([CH2]CCC)[S]C(=S)NCCNC(=S)[S][Sn]([Cl])([CH2]CCC)[CH2]CCC,T/C,"dose: 6.0 mg/kg/injection, schedule: Q04DX002 (ip), vehicle: other",98 % of control
same,T/C,"dose: 12.0 mg/kg/injection, schedule: Q04DX002 (ip), vehicle: other",117 % of control
same,T/C,"dose: 25.0 mg/kg/injection, schedule: Q04DX002 (ip), vehicle: other",102 % of control
O=C(O)Cn1c(=O)ccc2ccccc21,T/C,"dose: 100.0 mg/kg/injection, schedule: Q04DX002 (ip), vehicle: saline with Tween-80",91 % of control
same,T/C,"dose: 200.0 mg/kg/injection, schedule: Q04DX002 (ip), vehicle: saline with Tween-80",95 % of control
same,T/C,"dose: 400.0 mg/kg/injection, schedule: Q04DX002 (ip), vehicle: saline with Tween-80",95 % of control
COC(=O)C1C=CCC(C(=O)OC)C1 (stereo unspecified),T/C,[20],91 % of control
same,T/C,"dose: 100.0 mg/kg/injection, schedule: Q04DX003 (ip), vehicle: saline with Tween-80",109 % of control
same,T/C,[21],96 % of control
same,T/C,"dose: 200.0 mg/kg/injection, schedule: Q04DX003 (ip), vehicle: saline with Tween-80",96 % of control
same,T/C,[22],100 % of control
same,T/C,"dose: 400.0 mg/kg/injection, schedule: Q04DX003 (ip), vehicle: saline with Tween-80",93 % of control
Cc1ccc2c(c1)C(c1ccccc1)(c1ccccc1)N(c1ccccc1)S2(=O)=O,T/C,[1],94 % of control
same,T/C,[2],91 % of control
same,T/C,[3],100 % of control
COc1ccc(Cl)cc1NC(=O)Nc1cc(Cl)c(Cl)cc1C,T/C,[15],102 % of control
same,T/C,[17],95 % of control
same,T/C,[16],100 % of control
same,T/C,[18],94 % of control
same,T/C,[23],97 % of control
same,T/C,[19],94 % of control
O=[N+]([O-])c1cc(S(=O)(=O)O)cc([N+](=O)[O-])c1Cl,T/C,"dose: 75.0 mg/kg/injection, schedule: Q01DX001 (ip), vehicle: saline",112 % of control
same,T/C,"dose: 150.0 mg/kg/injection, schedule: Q01DX001 (ip), vehicle: saline",109 % of control
same,T/C,"dose: 300.0 mg/kg/injection, schedule: Q01DX001 (ip), vehicle: saline",113 % of control
